# Measured values published in patent publication US20200199575A1, “ROLE OF EXOSOMES, EXTRACELLULAR VESICLES, IN THE REGULATION OF METABOLIC HOMEOSTASIS” (CHILDREN'S HOSPITAL MEDICAL CENTER, priority 2017, published 2020).
# “Also recorded” adds a separate entry of the source.
# Tests used:
# [1] = tested on: exosome secretion and RNA loading onto exosomes; settings: cited from earlier work
# N-SMase = target: T1, N-SMase (Rattus norvegicus, UniProt O35049); settings: rat brain; non-competitive inhibitor; cited from earlier work
# T1 construct: host or cells: rat brain
# T1 sequence (O35049 1-655): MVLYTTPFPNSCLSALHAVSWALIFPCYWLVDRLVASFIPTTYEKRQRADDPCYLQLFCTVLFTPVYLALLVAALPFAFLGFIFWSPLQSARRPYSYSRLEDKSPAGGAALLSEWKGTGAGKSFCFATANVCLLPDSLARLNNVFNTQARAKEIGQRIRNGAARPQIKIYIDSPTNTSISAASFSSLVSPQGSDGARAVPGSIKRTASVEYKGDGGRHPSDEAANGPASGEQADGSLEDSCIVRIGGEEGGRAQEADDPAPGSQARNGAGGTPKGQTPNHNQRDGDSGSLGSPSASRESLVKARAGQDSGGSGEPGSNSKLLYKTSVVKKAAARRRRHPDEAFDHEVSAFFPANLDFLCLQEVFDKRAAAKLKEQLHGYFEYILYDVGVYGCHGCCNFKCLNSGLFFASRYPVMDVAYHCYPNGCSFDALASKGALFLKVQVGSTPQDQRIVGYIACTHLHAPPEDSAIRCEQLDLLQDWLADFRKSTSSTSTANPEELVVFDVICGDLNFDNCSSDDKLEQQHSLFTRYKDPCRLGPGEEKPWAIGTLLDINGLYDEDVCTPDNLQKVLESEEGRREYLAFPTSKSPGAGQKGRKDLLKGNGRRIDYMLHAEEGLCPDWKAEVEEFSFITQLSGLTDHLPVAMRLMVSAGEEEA
# SMPD3 = tested on: SMPD3
# Excerpt: (§1) (A) A scheme of the exosome transfer from cultured primary mouse hepatocytes to primary mouse bone marrow-derived macrophages (BMDMs). […] The same number of exosomes was used.
# (§2) SMPD3 plays a critical role in EV secretion and affects components of EV such as RNA.
# [2] = tested on: primary mouse bone marrow-derived macrophages (BMDMs); test: Exosome transfer from treated primary mouse hepatocytes to bone marrow-derived macrophages, inflammatory response (IL-6 mRNA); settings: PA 100 μM for 20 hours; exosome fraction by MagCapture kit
# Excerpt: as §1, §2
Structure (SMILES),Effect on RNA loading onto exosomes [1],Effect on exosome secretion [1],IC50 (N-SMase),Expression of SMPD3 in cultured hepatocytes on palmitate exposure (SMPD3),Inflammatory effect (IL-6 mRNA expression) in BMDMs of exosomes from hepatocytes treated with palmitate [2]
Cl.Cl.O=C(/C=C/c1ccc(/C=C/C(=O)Nc2ccc(C3=NCCN3)cc2)cc1)Nc1ccc(C2=NCCN2)cc1 [GW4869],inhibit,inhibit,1000 nM,–,–
CCCCCCCCCCCCCCCC(=O)O [palmitate],–,–,–,induced,increase expression of IL-6 mRNA in BMDMs; also recorded: caused higher inflammatory responses in primary murine macrophages
